“Also recorded” adds a separate entry of the source.
Key:
Living skin models [1] = test: Living skin models: ceramide/lipid production by HPTLC/TLC; type: cell-based
Method: A. Determination of cafestol activity. Living skin models (#1301) are obtained from Advanced Tissue Sciences and treated with cafestol acetate(Sigma)by addition of a stock solution prepared in cell culture medium in a dose-dependent manner from 0.01 mg/ml to 1.0 mg/ml, or in a time-dependent manner at 0.5 mg/ml for up to 7 days. All experiments are conducted with untreated controls. At each dose or time point, the skin models are homogenized and the lipids extracted with chloroform/methanol(2:1), taken to dryness, and resuspended in chloroform. Samples are chromatographed on HPTLC and their lipid composition visualized by degradative charring (Melnick et al., J. Invest. Dermatol 92:231-234, 1989)
B. Comparison of cafestol activity with coffee bean oil activity. To compare the lipid enhancing activity of cafestol with that of coffee bean oil, living skin models are treated over a period of five days with increasing amounts of cafestol acetate in a range from 0.01 mg/ml to 1.0 mg/ml. A parallel set of living skin squares is also tested with a sample of coffee bean oil (Robeco). At the end of the incubation period, each skin square is homogenized and its lipids extracted in chloroform/methanol (2:1). This is followed by TLC analysis. Ceramides are identified by degradative charring and comparison to ceramide standards. Densitometric analysis of the TLC plate is carried out with an Optimas Bioscan.

skin barrier = test: Clinical study: skin barrier function by tape stripping and TEWL; type: in vivo, human; details: twice a day, volar forearm
Method: B. Effect of cafestol on skin barrier function. Ten healthy female subjects, between the ages of 25-45. with normal skin on their forearms are tested in this study. […] They acclimate in the environmental room at 40% relative humidity and 70° F. for 20 minutes before their baseline measurements are recorded. They are then randomly assigned to one of two treatment groups.
Group I (n=5) receives treatment containing cafestol at 0.1% to use on one arm and a placebo to use on the other arm. Group II (n+5) uses a treatment containing 0.2% cafestol palmitate on one arm and a treatment containing 0.1% cafestol acetate on the other arm. The subjects self-administer the treatment twice a day on the lower part of their volar forearms except on the day of testing.
A five cm by two cm are is marked using a template on the lower inner forearm and initial water evaporation measurements are taken in three separate spots approximately 1 cm apart in a row. Five cm of the cello-tape is placed on the skin in the outlined area, starting from the top and after one firm stroke in each direction is removed by gently pulling in a downward direction parallel to the skin. The procedure is repeated and water evaporation is measured after every five to ten strips until the barrier is broken, as indicated by a minimum water evaporation of 18 g/sq m hr on one of the three spots. The subjects' transepidermal water loss (TEWL) is monitored on the challenged sites after 1, 2 and 3 days in order to measure the ability of the skin to repair itself. After 5 and 10 days of product treatment, the above procedure is repeated under the same test conditions on an adjacent new site.
TEWL is measured with the Servo Med Evaporimeter, fitted with a chimney and gauze. The subjects are in a relaxed inclined position, and are not allowed to converse or get excited. TEWL is recorded automatically using the Dia-Stron computer program set at a 30 second data acquisition time and a 15 second plateau.
B. Barrier strength measurements. Barrier strength is evaluated by challenging the skin with tape stripping and measuring the water evaporation (WE). To describe the experimental data, curve fitting Linear Regression Analysis based on least-square method is performed on each individual's data and the number of tape strippings required to reach a WE of 18 g/sq m/hr is recorded for each visit. The number of tape strippings required to perturb the barrier is a measure of its strength.

stratum corneum lipids = test: Clinical study: ceramide levels on human skin by thin layer chromatography; type: in vivo
Method: A. Determination of cafestol activity on lipid production. […] A short clinical study, consisting of five subjects, is then carried out under the same conditions in order to test the ability of cafestol acetate to raise ceramide levels. At zero time, ethanol washes are performed in order to remove stratum corneum lipids from both arms. Cafestol acetate, prepared in ethanol at a concentration of 1 mg/ml, is applied twice a day with a pump spray to the right volar forearm. As a control, ethanol is applied at the corresponding site at the left arm. On day three, stratum corneum lipids are again removed and both zero time and day three lipids from both arms are evaluated by thin layer chromatography as described above.

Living skin models [2] = test: Histology of treated living skin models; type: cell-based; details: living skin squares, fixed, sectioned, hematoxylin/eosin
Method: C. Histology. To determine the histological effect of cafestol application to living skin, skin squares are treated as described above; at the end of the incubation period, samples are fixed, sectioned and stained with hematoxylin/eosin.

SMILES | ceramides as a function of dose (HPTLC) (Living skin models [1]; 0.01 mg/ml to 1.0 mg/ml) | ceramides as a function of time (HPTLC) (Living skin models [1]; 0.5 mg/ml for up to 7 days) | increase in barrier strength (number of tape strippings to reach WE of 18 g/sq m/hr) (skin barrier; after 5 days of treatment) [%] | increase in barrier strength (number of tape strippings to reach WE of 18 g/sq m/hr) (skin barrier; after 10 days of treatment) [%] | ceramide production, comparison with coffee bean oil (TLC, densitometric scan) (Living skin models [1]; five days, 0.01 mg/ml to 1.0 mg/ml) | ceramide I level (stratum corneum lipids; five subjects, 1 mg/ml in ethanol twice a day, volar forearm, day three) | ceramide I level (stratum corneum lipids; initial test, single individual, applied directly to skin over three days) | ceramide IV level (stratum corneum lipids; the subject without ceramide I increase, 1 mg/ml in ethanol twice a day, day three) | stratum corneum (histological analysis) (Living skin models [2])
CC(=O)OC[C@@]1(O)C[C@@]23CC[C@@H]4c5ccoc5CC[C@@]4(C)[C@@H]2CC[C@@H]1C3 [cafestol acetate] | increase in ceramide production with increasing dosage; also recorded: selective increase in ceramides as a function of dose | presence of ceramides after only one day of application, reaching maximum concentrations after three days | 10 | 38 |  |  |  |  | 
CCCCCCCCCCCCCCCC(=O)OC[C@@]1(O)C[C@@]23CC[C@@H]4c5ccoc5CC[C@@]4(C)[C@@H]2CC[C@@H]1C3 [cafestol palmitate] |  |  | 8 | 43 |  |  |  |  | 
C[C@@]12CCc3occc3[C@H]1CC[C@@]13C[C@@H](CC[C@H]12)[C@@](O)(CO)C3 [cafestol] |  |  |  |  | dose-dependent increase in ceramide production | increased levels of ceramide I in four of the five subjects | elevated | increase in ceramide IV | clear increase in stratum corneum
